Experimental data published in US20240132525A1, “BORON […], CO[…], METHODS AND USES THEREOF” (priority 2022, published 2024).

Legend:
[1] = tested on: recombinant canine IL-31 induced pruritic behaviors; assay: IL-31 induced itch behavior in Beagle dogs; assay type: in vivo; conditions: oral 1 mg/kg once daily for 5 days, IL-31 1.75 μg/kg i.v. on day 5
Experimental: Ten healthy adult male Beagle dogs with no previous history of pruritus or skin disease were selected. […] Afterward, all dogs received repeated administration of oral solution and again intravenously recombinant canine IL-31 injections to assess inhibition of IL-31 induced itch behavior. (See, e.g., Gonzales, Vet. Dermatol. 2016, 27, 34-e10 and Pearson, Vet. Sci. 2023, 10, 369)
An oral solution of a representative compound of the present disclosure, Example 33a, at 1 mg/kg once daily in the morning for five (5) days, was administered to each dog in a crossover design for the five (5) consecutive days. All dogs were fasted during the oral administration and thirty minutes (30 min) post oral drug administration. On day 5, all dogs were administered a recombinant canine IL-31 intravenously at the dose of 1.75 μg/kg.

[2] = target: JAK2 (Homo sapiens (Human), UniProt O60674); assay: Biochemical kinase assay (33P-ATP filter-binding), JAK2; conditions: Table 3a; read-out: IC50 JAK2
Sequence of JAK2 (O60674 whole entry, species assumed): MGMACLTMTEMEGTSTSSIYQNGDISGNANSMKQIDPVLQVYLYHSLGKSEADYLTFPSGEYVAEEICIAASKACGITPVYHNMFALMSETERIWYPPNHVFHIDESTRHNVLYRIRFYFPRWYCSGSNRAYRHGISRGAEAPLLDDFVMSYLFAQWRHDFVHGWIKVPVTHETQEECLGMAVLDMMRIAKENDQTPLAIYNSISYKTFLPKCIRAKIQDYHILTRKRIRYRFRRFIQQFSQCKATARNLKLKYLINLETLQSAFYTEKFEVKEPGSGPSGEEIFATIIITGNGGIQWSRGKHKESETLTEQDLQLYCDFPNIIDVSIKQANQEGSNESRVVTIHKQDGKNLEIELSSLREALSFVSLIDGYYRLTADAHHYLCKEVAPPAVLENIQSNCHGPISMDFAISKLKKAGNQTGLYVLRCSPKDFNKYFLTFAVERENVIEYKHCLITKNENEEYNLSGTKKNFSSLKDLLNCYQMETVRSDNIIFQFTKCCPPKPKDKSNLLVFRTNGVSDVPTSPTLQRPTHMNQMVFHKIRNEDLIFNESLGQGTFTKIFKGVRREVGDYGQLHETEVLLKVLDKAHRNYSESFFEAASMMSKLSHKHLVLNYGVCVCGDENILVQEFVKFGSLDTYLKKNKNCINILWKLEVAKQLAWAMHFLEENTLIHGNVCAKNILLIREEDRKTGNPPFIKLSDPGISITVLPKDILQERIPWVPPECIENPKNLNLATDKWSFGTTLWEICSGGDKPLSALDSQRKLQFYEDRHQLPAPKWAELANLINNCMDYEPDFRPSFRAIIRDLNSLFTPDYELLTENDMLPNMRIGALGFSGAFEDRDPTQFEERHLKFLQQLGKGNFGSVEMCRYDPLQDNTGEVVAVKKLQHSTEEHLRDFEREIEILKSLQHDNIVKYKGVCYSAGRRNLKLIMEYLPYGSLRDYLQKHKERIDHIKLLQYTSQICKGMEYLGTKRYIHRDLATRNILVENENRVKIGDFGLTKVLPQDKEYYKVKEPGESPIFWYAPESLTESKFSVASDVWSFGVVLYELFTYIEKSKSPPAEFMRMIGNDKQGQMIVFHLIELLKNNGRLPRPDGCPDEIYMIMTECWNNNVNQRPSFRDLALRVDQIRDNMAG
From the text: (§1) Biochemical Kinase Assay Protocol (JAK)
(§2) Reaction Procedure: • 1. […] Detected kinase activity by filter-binding method.

[3] = Pharmacokinetic profile after single oral administration in Beagle dogs; assay type: in vivo; conditions: male Beagle dogs, single oral dose about 1.0 mg/kg, fasted
Experimental: Summary of Pharmacokinetic (PK) profile
Three healthy male Beagle dogs were studied to determine a representative pharmacokinetic (PK) profile following a single oral administration of 1.0 mg/kg to each dog in a fasted state. Blood samples were collected at pre-dose, 0.25, 0.5, 1, 2, 4, 8, 24; 32, and 48 h post dose following oral administration (1 mg/mL in 10% Propylene glycol (PG), 45% PEG400, 7% Cremophor EL, 38% 50 mM citrate buffer pH 3.0 suspension or clear solution).

[4] = tested on: IL-4/pSTAT6; assay: Cytokine function assay IL-4/pSTAT6 in PBMC; assay type: cell-based; conditions: PBMC, read-out: IC50 IL-4, Table 3a
Experimental: (§3) Cytokine Function Assay Protocols for IL-4/pSTAT6 and GM-CSF/pSTAT5
IL-4/pSTAT6: • PBMC from a healthy donor was plated onto a 96 w plate. Compound was added and incubated for 1 hour (at 37° C.). After 1 hour, cells were stimulated with IL-4 for 15 minutes. Cells were fixed and stained with anti-pSTAT6 antibody. After staining, cells were read on a Beckman-Coulter CytoFLEX.

[5] = target: JAK1 (Homo sapiens (Human), UniProt P23458); assay: Biochemical kinase assay (33P-ATP filter-binding), JAK1; conditions: Table 3a; read-out: IC50 JAK1
Sequence of JAK1 (P23458 whole entry, species assumed): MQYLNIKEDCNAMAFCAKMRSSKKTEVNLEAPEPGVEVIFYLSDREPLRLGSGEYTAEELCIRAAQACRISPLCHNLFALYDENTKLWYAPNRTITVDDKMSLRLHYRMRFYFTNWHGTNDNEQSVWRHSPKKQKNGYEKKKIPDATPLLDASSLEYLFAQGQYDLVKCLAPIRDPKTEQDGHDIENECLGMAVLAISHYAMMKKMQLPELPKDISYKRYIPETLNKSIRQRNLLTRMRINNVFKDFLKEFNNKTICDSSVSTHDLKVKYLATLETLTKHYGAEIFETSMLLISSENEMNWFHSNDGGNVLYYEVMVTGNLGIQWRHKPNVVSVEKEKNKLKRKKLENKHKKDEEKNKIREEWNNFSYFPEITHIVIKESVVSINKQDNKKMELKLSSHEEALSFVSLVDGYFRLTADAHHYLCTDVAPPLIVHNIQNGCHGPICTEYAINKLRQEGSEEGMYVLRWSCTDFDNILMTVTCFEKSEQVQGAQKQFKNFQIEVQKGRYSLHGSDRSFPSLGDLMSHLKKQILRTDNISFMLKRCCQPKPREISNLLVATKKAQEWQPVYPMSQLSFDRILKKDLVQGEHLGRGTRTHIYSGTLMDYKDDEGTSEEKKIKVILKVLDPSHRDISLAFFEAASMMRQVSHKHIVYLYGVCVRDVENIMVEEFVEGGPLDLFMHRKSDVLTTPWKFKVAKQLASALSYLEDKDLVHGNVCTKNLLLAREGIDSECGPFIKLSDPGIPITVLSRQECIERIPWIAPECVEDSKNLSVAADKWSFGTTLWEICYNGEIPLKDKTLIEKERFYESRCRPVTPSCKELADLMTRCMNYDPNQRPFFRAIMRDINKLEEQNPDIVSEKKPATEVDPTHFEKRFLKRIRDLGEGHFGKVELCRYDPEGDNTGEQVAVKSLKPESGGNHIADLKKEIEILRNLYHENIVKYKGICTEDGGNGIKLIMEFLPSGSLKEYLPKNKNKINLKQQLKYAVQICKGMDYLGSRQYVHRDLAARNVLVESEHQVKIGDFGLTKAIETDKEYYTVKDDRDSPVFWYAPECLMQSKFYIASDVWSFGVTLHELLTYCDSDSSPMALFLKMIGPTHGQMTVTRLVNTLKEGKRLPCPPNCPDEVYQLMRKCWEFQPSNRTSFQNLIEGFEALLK
From the text: as §1, §2

[6] = tested on: GM-CSF/pSTAT5; assay: Cytokine function assay GM-CSF/pSTAT5 in lysed whole blood cells; assay type: cell-based; conditions: Whole blood cell, read-out: IC50 GM-CSF
Experimental: as §3
GM-CSF/pSTAT5: • Whole blood from a healthy donor was lysed to remove red blood cells. Cells were plated onto a 96 well plate. Compound was added and incubated for 1 hour (at 37° C.). After 1 hour, cells were stimulated with GM-CSF for 15 minutes. Cells were fixed and stained with anti-pSTAT5 antibody. After staining, cells were read on a Beckman-Coulter CytoFLEX.

[7] = tested on: IL-31; assay: Cytokine function assay for IL-31 in DH82 cells; assay type: cell-based, canine; conditions: Canis lupus familiaris, DH82; Table 3a; read-out: IC50 IL-31
Experimental: Cytokine Function Assay Protocol for IL-31
The protocol for the cytokine function assay for IL-31 is set forth below: • 1. […] After 24 hr, wash with 37° C. pre-warmed PBS (100 uL/well). • 3. Add serum-free MEM, 90 uL per well, 2 hr, 37° C. • 4. Add 10 uL 10×IL-31 (40, 10, 2.5 ug/mL) in duplicate, 5 min, 37° C. • 5. Remove medium, add 60 uL lysis buffer per well. Agitate on a plate shaker (˜350 rpm) for 10 min at RT. • 6. […] Add 6 uL Acceptor Mix, cover with aluminum foil, quickly spin at 1000 rpm, shake at 120 rpm for 2 min, then incubate at RT for 1 hr. • 8. Add 6 uL Donor Mix, cover with aluminum foil, quickly spin at 1000 rpm, shake at 120 rpm for 2 min, then incubate at RT for 1 hr. • 9. Measure the fluorescence using EnVision™ plate reader.

[8] = Dog LM (liver microsome) assay; assay type: in vitro ADME; conditions: Table 3a; predicted clearance as percent of liver blood flow, 1 μM, 1 mg/ml microsomal protein
In short: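 Pooled Beagle liver microsomes (1 mg/ml protein), compound 1 μM, Tris pH 7.6 with 5 mM MgCl2, 37 °C, started with 1 mM NADPH; parent loss by LC-MS/MS over several time points.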

## Cc1cnc(Nc2cc3c(c(C(F)(F)F)c2)B(O)OC3)nc1N[C@@H]1COCC[C@H]1C#N (single isomer, unassigned) [Example 033a, (trans)-3-[[2-[[1-hydroxy-7-(trifluoromethyl)-3H-2,1-benzoxaborol-5-yl]amino]-5-methyl-pyrimidin-4-yl]amino]tetrahydropyran-4-carbonitrile]
[1]
  anti-pruritic effect compared to IL-31 baseline/alone: significant anti-pruritic effect
[2]
  IC50: 8.1 nM
[3]; dog, in vivo
  Cmax: 279 ng/mL
[3]; dog, in vivo, read-out: Mean AUCINF_obs
  AUC(0-inf): 2560 ng·h/mL
[3]; dog, in vivo, read-out: Mean AUClast
  AUC(0-t): 2460 ng·h/mL
[3]; dog, in vivo, read-out: Mean Clast
  concentration at 48 h: 4.74 ng/mL
[3]; dog, in vivo, read-out: Mean T1/2 (converted)
  half-life: 876 min
[3]; dog, in vivo, read-out: Median Tmax
  Tmax: 1 h
[3]
  Median Tlast: 48 h
[4]
  IC50: 136 nM
[5]
  IC50: 0.4 nM
[6]
  IC50: 1700 nM
[7]
  IC50: 19.1 nM
[8]
  Dog LM QH: <19.9%
